Reference: patent US6677306B1, “Chondrogenic and osteogenic inducing molecule” (Northwestern University, priority 1998, dated 2004)
Entries after “also recorded” stand apart in the source; their conditions may differ.

B1: rA4: recombinant polypeptide SEQ ID NO:6, secreted form of rat amelogenin gene splice product, exons 2, 3, 4, 5, 6d and 7 (protein)
chain: MPLPPHPGSPGYINLSYEKSHSQAINTDRTALVLTPLKWYQSMIRQPPLSPILPELPLEAWPATDKTKREEVD
modifications: Recombinant rat amelogenin
B2: rB4: recombinant full-length rat amelogenin, exons 2, 3, 4, 5, 6 and 7 (protein, UniProt P63278 1-210, looked up)
chain: MGTWILFACLLGAAFAMPLPPHPGSPGYINLSYEKSHSQAINTDRTALVLTPLKWYQSMIRQPYPSYGYEPMGGWLHHQIIPVLSQQHPPSHTLQPHHHLPVVPAQQPVAPQQPMMPVPGHHSMTPTQHHQPNIPPSAQQPFQQPFQPQAIPPQSHQPMQPQSPLHPMQPLAPQPPLPPLFSMQPLSPILPELPLEAWPATDKTKREEVD
modifications: full-length

Key:
[1] = system: embryonic rat muscle fibroblasts (EMF); test: Cell number of EMF after exposure to factors; assay type: cell-based; details: after 5 days in culture, after a 24 h exposure
Description: In vitro assay for chondrogenic activity: The purified recombinant proteins were tested for biological activity by the assay for enhanced incorporation of ^35S—SO4 into proteoglycan (8,11) by embryonic rat muscle fibroblasts (EMF). The EMF were seeded onto type I collagen coated 96 well plates, with an initial loading of 10^4 cell/well. The cells were grown to near confluence in alpha MEM, 10% FBS, 1% Pen/Strep in 5 days. At day 5 the growth media was replaced with conditioning media (CM), alpha MEM, 0.5% FBS, 1% Pen/Strep, and grown for an additional 24 h. Fresh CM containing the factors to be tested, was added at the concentrations noted. Four hours later, 1 μCi^35 S—SO4 in 10 μL sterile PBS was added per well, and incubation was continued for 20 h. The ^35S—SO4 incorporated into secreted proteoglycan was determined by precipitation of the proteoglycan with cetyl pyridinium chloride, as described above, followed by scintillation counting of the precipitate. The cell layer was trypsinized and the number of cells counted. Incorporation is presented as counts per minute per cell ×10^3. Recombinant human BMP2 (A kind gift from the Genetics Institute, Boston, Mass.) and the bioactive crude S100 fractions from rat incisor dentin (Amar et al., 1991) and/or bovine dentin (see Example 1) were used as the positive controls. […]

[2] = system: embryonic muscle fibroblasts (EMF); test: EMF [35S]-SO4-incorporation assay (sulfate incorporation into proteoglycan); assay type: cell-based, rat; details: for activity in directing change in phenotype of embryonic rat muscle fibroblasts in vitro: compared with rBMP-2
Description: Embryonic Muscle Fibroblast (EMF) Tissue Culture Assay Embryonic Muscle Fibroblasts. Rat EMF cells were derived from the thigh muscles of 20 day old Sprague Dawley rat embryos for use in primary tissue culture assays using a modification of the Koskinen harvesting technique (Koskinen et al., 1985), and grown in growth media (GM) [α-Modified Eagle's Medium (αMEM , Life Technologies, Gaithersburg, Md.), containing 10% heat inactivated fetal bovine serum (FBS), 1% Penicillin/Streptomycin (P/S)] in 5% O2/95% air at 37° C. EMFs were frozen at passage 2 (P-2).
Short Term Culture and Labeling with ^35SO4—Sulfate. The EMFs were plated (day 0) at a concentration of 10^4 cells per well in a 96 well plate which had been precoated with 100 μl of a 50 μg/ml solution of type I Rat Tail Collagen (Collaborative Biomedical Products). The cells were grown for 5 days in GM. On day 5, the cells were conditioned by removing the GM and adding conditioning media (CM) (αMEM containing 0.5% FBS, 1 % P/S) for 24 hours. This media was replaced with 100 μl of fresh CM, just prior to the addition of the test factors (hour 0). Test factors were added to test wells in triplicate. PBS/0. […] 1% BSA, were used as positive controls. Four hours following the addition of factors, the cells were labeled with 1 μCi ^35S—SO4/10 μl sterile PBS/well/96 well plate for 20 hours.
Assay of ^35S Sulfate Incorporation Into Proteoglycans in the Medium. In a departure from the Koskinen et al. (1985) protocol, glycosaminoglycan synthesis was routinely determined by the measurement of incorporation of ^35S sulfate (ICM Biomedical, Costa Mesa, Calif.) into the total cetylpyridinium chloride (CPC)-precipitable materials in the media without prior papain digestion. […] The total medium from each well (˜115 μl) was placed into a 13×100 mm glass culture tube. 150 μl of 100 μg/ml Chondroitin Sulfate A Sodium Salt (Sigma, St. Louis, Mo.) at 4° C. (buffer C), was added to each tube to serve as a carrier. 500 μl of 2.0 mM MgSO4. 4° C. (buffer B), was added. The mixture was incubated in a 37° C. water bath with shaking for 30 minutes. One ml of 1% CPC in 0.02M NaCl (buffer D) was added and incubated at 37° C. for 60 minutes in the water bath.
The samples were filtered through Whatman GF/A glass microfibre filters using a Millipore 12 well filtration device. The contents of each glass tube were individually poured into one of the wells under suction. The tube and filters were washed with buffer B 3 times. The filters were allowed to dry briefly, and were transferred to a scintillation vial. Then 5 ml scintillation cocktail was added per vial and the radioactive counts were measured in the scintillation counter.
In vitro assay for chondrogenic activity: The purified recombinant proteins were tested for biological activity by the assay for enhanced incorporation of ^35S—SO4 into proteoglycan (8,11) by embryonic rat muscle fibroblasts (EMF). The EMF were seeded onto type I collagen coated 96 well plates, with an initial loading of 10^4 cell/well. The cells were grown to near confluence in alpha MEM, 10% FBS, 1% Pen/Strep in 5 days. At day 5 the growth media was replaced with conditioning media (CM), alpha MEM, 0.5% FBS, 1% Pen/Strep, and grown for an additional 24 h. Fresh CM containing the factors to be tested, was added at the concentrations noted. Four hours later, 1 μCi^35 S—SO4 in 10 μL sterile PBS was added per well, and incubation was continued for 20 h. The ^35S—SO4 incorporated into secreted proteoglycan was determined by precipitation of the proteoglycan with cetyl pyridinium chloride, as described above, followed by scintillation counting of the precipitate. The cell layer was trypsinized and the number of cells counted.

[3] = system: quadriceps of Long-Evans rats; test: In vivo osteogenic activity, poly(lactide)-poly(glycolide) scaffold implants in quadriceps; set-up: species or system rat; details: for mineral deposition in implants, Alizarin Red and von Kossa staining / radiograph of implants after excision, mineralization pattern / vascularization, cell infiltration and extracellular matrix in implants (H&E) / ingrowth of capillaries and extracellular matrix formation, r(A-4) versus rA4 implants: 4 weeks; for vascularization, cell infiltration and extracellular matrix in implants (H&E): FIG. 15; for activity in inducing onset of osteogenesis in muscle implants in vivo: compared with rBMP-2
Description: In vivo osteogenic activity. The recombinant proteins, Emdogain and controls were each included in a bioabsorbable polymer matrix implants. The implants were prepared in poly (lactide)-poly(glycolide) scaffolds by the procedure of Whang et al. (1998) with 167 μg per implant. Implants were placed in the quadriceps of the hind legs of 100 g, 4 week old, male Long-Evans rats. Each animal received a negative control implant containing 167 μg of BSA in PBS. The implants were kept in place for 28 days. The implants were removed and radiographed, then they were fixed in 4% paraformaldehyde, dehydrated in graded ethanol and embedded in paraffin. Sections (7μ thick) were cut and stained with either Von Kossa or Alizarin Red dyes, both of which can indicate the presence of mineralized deposits containing divalent cations. To assure that the stains seen were calcific deposits, serial sections were treated with 5% EGTA for 10 min before staining.

Molecule	cell number (growth factor action) [1]	activity in directing change in phenotype of embryonic rat muscle fibroblasts in vitro [2]	concentration as low as which production of 35S-SO4-labeled proteoglycan was stimulated ([2]; monolayer culture, FIG. 13) [ng/mL]	concentration as low as which production of 35S-SO4-labeled proteoglycan was stimulated (molar) ([2]; monolayer culture, FIG. 13) [pM]	alkaline phosphatase in implants ([3]; 167 μg per implant)	mineral deposition in implants, Alizarin Red and von Kossa staining ([3]; 167 μg per implant)	radiograph of implants after excision, mineralization pattern ([3]; 167 μg per implant)	vascularization, cell infiltration and extracellular matrix in implants (H&E) ([3]; 167 μg per implant)	mineral deposition in implants, Alizarin Red and von Kossa staining ([3]; 167 μg per implant, listed as (A-4))	ingrowth of capillaries and extracellular matrix formation, r(A-4) versus rA4 implants [3]	activity in inducing onset of osteogenesis in muscle implants in vivo [3]	stimulation of 35S-SO4-labeled proteoglycan production at low concentrations, relative to r(A-4) ([2]; equivalent low (ng/ml) concentrations)	effect on sulfate incorporation compared with rhBMP-2 positive control ([2]; rhBMP-2 at 10 ng/ml)	mineral deposition in implants, Alizarin Red and von Kossa staining ([3]; 167 μg per implant, listed as A4)
r(A-4): recombinant polypeptide SEQ ID NO:5, secreted form of rat amelogenin gene splice product, exons 2, 3, 5, 6d and 7 (MPLPPHPGSPGYINLSYEVLTPLKWYQSMIRQPPLSPILPELPLEAWPATDKTKREEVD; Recombinant rat amelogenin)	did not increase	equivalent to rBMP-2	1	~140	positive	stained strongly	heavier mineralization around the periphery	vascularized and filled with extracellular matrix; also recorded: infiltrated by many cells, and an abundant network of capillaries	highly positive for deposition of mineral	more prominent	equivalent to rBMP-2	–	–	–
B1	increase	equivalent to rBMP-2	–	–	–	calcified to a lesser extent	more punctate deposition of mineral	vascularized and filled with extracellular matrix; also recorded: vascularized but more sparsely than the r(A-4) implants	–	islands of capillaries, and the formation of a surrounding extracellular matrix was also evident	equivalent to rBMP-2	less active	quite comparable	some focal deposits of mineral
B2	–	–	–	–	–	inactive	–	–	–	–	–	–	–	–
